Experiments:
latent HIV in U1 cells = experiment: HIV transcription in U1 cells (RT-qPCR); type: cell-based; conditions: 6 nM PEP005, 2 μM JQ1, 24 h
Experimental: FIG. 2: PEP005 synergizes with other latency reversing agents in reactivating latent HIV. (A) J-Lat A1 cells were treated with 5 ng/ml PMA, 6 nM PEP005, 500 nM SAHA, 2 μM JQ1, 2 μM GSK343, or 10 μM Prostratin alone or in combination with 6 nM PEP005 for 24 hours and the percentage of GFP expressing cells was determined using flow cytometry. **, p<0.01; *, p<0.05 compared with control treatment; **, p<0.01; *, p<0.05 compared with PEP005 treatment alone. (B) The U1 cells were treated with 5 ng/ml PMA, 6 nM PEP005, 500 nM SAHA, 2 μM JQ1, or 2 μM GSK343, alone or in combination with 6 nM PEP005 for 24 hours and the HIV transcription was evaluated using RT-qPCR. […] Statistical significance was determined using a one tailed ratio t-test comparing predicted and observed drug combination effects. *p<0.05; **p<0.01.
J-Lat A1 cells (harboring a single copy of latent HIV LTR and one copy of green fluorescent protein gene under the HIV LTR control) or U1 cells (harboring two latent HIV genomes with defective Tat gene) were cultured in RPMI1640 medium with 10% fetal bovine serum (FBS) and 1% Pen/strep in a 37° C. incubator containing 5% CO2 [24,31]. […] HIV reactivation was quantified by GFP expression using flow cytometry and the data were analyzed using FlowJo Software for J-Lat A1 cells, or by quantitative RT-PCR (RT-qPCR) for J-Lat A1 and U1 cells. […]

[1] = test system: latent HIV in primary CD4+ T cells; experiment: Ex vivo HIV transcription in primary CD4+ T cells from HIV infected individuals on suppressive ART (RT-qPCR); type: cell-based
Experimental: Primary CD4+ T cells were isolated from peripheral blood of HIV infected individuals on suppressive ART and treated with 6 or 12 nM PEP005, 200 ng/ml PMA plus 2 μM lonomycin, or DMSO for 6 hours. Induction of HIV transcription was measured using RT-qPCR for the 5′ LTR region or Poly A region of the virus. **, p<0.01.
Primary CD4+ T cells were isolated from the peripheral blood of HIV positive individuals on suppressive ART and treated with 12 nM PEP005 alone or in combination with JQ1 for 6 hours, and HIV transcription was quantified using RT-qPCR for the 5′ LTR region or Poly A region of the virus.
Primary CD4+ T cells were isolated from the peripheral blood of HIV positive individuals on suppressive ART and treated with 12 nM PEP005 alone or in combination with JQ1 for 48 hours, and HIV transcription was quantified using RT-qPCR for the 5′ LTR region or Poly A region of the virus.
Primary CD4+ T cells were isolated from the peripheral blood of HIV positive individuals on suppressive ART and treated with 12 nM PEP005 alone or in combination with JQ1 for 6 or 48 hours, and HIV transcription was quantified using RT-qPCR for the 5′ LTR region or Poly A region of the virus.
Peripheral blood samples were collected from 13 HIV-infected individuals receiving suppressive ART for >3 years except for one patient. All subjects had suppression of plasma viremia for more than 6 months (Average 5.84 years). At the time of the study enrollment, CD4+ T cell counts in peripheral blood samples ranged from 264 to 1100 cells/mm^3 (Average 639 cell/mm^3) and plasma viral loads were <20 copies per ml as measured by qPCR (Table 1). Isolation of the peripheral blood mononuclear cells (PBMC) and purification of CD4+ T cells using the EasySep kit ([sequence] Technologies Inc. Vancouver, BC, Canada) were performed as previously described [24]. The purified CD4+ T cells were plated at a density of 1×10^6 cells/ml and treated with 200 ng/ml PMA plus 2 μM Ionomycin, 6-12 nM PEP005, 2 μM of JQ1, or 12 nM PEP005 plus 2 μM JQ1 for 6 hrs or 48 hrs and the cells were collected for RNA purification.

[2] = test system: NF-κB/p65 binding to HIV LTR; experiment: ChIP-qPCR of NF-κB/p65 binding to the HIV LTR in J-Lat A1 cells; type: cell-based; conditions: 12 nM PEP005
Experimental: FIG. 4: PEP005-induced HIV reactivation is mediated through PKCδ/θ-IκBα/ε-NF-κB signaling. (A) PEP005-induced HIV reactivation is suppressed by inhibition of the PKCδ/θ. J-Lat A1 cells were treated with 6 nM of PEP005 in the presence of 1, 2 or 5 μM of PKC inhibitor (PKCθ/δ inhibitor; Milipore/Calbiochem (539649)) and evaluated for GFP expression by RT-qPCR. (B) NF-κB inhibition partially suppresses PEP005-induced HIV reactivation in J-Lat A1 cells. J-Lat A1 cells were treated with 6 nM of PEP005 in the presence of 2.5 μM Bay 11-7082, an NF-κB inhibitor, and were evaluated for GFP expression by RT-qPCR. (C) J-Lat A1 cells were treated with PEP005 or alternatively with PKC inhibitor alone or in the presence of PEP005 and the relative binding of NF-κB to the HIV LTR was determined using ChIP-qPCR.
Chromatin immunoprecipitation (ChIP): ChIP assay was performed as previously described. Briefly, 1×10^6 J-Lat A1 cells were incubated with PEP005, or PKCδ/θ inhibitor (PKGδi, Millipore/Calbiochem), fixed in 1% formaldehyde then resuspended in lysis buffer containing 1% SDS, 10 mM EDTA, 50 mM Tris-HCl, pH 8.1 (ChIP Assay Kit, Millipore) and protease inhibitor cocktail (Sigma-Aldrich). […] DNA was extracted (Qiagen PCR purification kit) and quantitative real-time PCR was performed using Agilent Brilliant Ultra-Fast SYBR Green QPCR reagent using the 7500 real-time PCR System. […]

[3] = PBMCs of healthy HIV-negative donors, 12 nM PEP005, 24 or 72 hours
[4] = purified primary CD4+ T cells, 12 nM PEP005, 24 hrs

C/C=C(/C)C(=O)O[C@H]1C(C)=C[C@]23C(=O)[C@@H](C=C(CO)[C@@H](O)[C@]12O)[C@H]1[C@@H](C[C@H]3C)C1(C)C [PEP005, (1aR,2S,5R,5aS,6S,8aS,9R,10aR)-5,5a-Dihydroxy-4-(hydroxymethyl)-1,1,7,9-tetramethyl-11-oxo-1a,2,5,5a,6,9,10,10a-octahydro-1H-2,8a-methanocyclopenta[a]cyclpropa[e][10]annulen-6-yl (2Z)-2-methylbut-2-enoate]
expression of CD38 (24 hr) and HLA-DR by flow cytometry (primary CD4+ T cells; [3]): no significant change
expression of CD69 by flow cytometry (primary CD4+ T cells; [3]): increase in expression of CD69
expression of CD38, CD25, or HLA-DR by RT-qPCR (primary CD4+ T cells; [4]): did not cause any significant change
expression of CD69 by RT-qPCR (primary CD4+ T cells; [4]): increased expression of CD69
increase in latent HIV reactivation / HIV transcription compared to controls (latent HIV in U1 cells): about 25 fold
individuals with increase in HIV transcription, 5′ LTR region ([1]; 6 nM PEP005, 6 hrs): 2 out of 7
donors with 2 or >2 fold increase in full-length HIV transcripts, poly A region ([1]; 12 nM PEP005): 5 of the 6
HIV RNA copy number in 1 μg of total RNA from CD4+ T cells ([1]; 12 nM PEP005, 6 hr, vs control treatment): significantly induced latent HIV reactivation
individuals with HIV transcription, 5′ LTR region ([1]; 12 nM PEP005, 6 hrs): 5 out of 7
donors with 2 fold or >2 fold increase in full-length HIV transcripts, poly A region ([1]; After 6 hours of PEP005 treatment): 5 of the 7
increase in NF-κB/p65 binding to HIV LTR region [2]: 6 fold

From US10376486B2, “Compositions and methods for reactivating latent viral infections” (priority 2014, dated 2019)
